Test system: K562 human leukemia cells
Experiment: Leukemia K562 cell model in rats, survival after onset of circulating blast cells
Assay type: in vivo
Conditions: oral 30 mg/kg, treated for 7 to 14 days
Method: Male Waster rats (220-230 g) were used. Rats were maintained in cages with raised floors of wide wire mesh to prevent coprophagy. All animals were kept under uniform and controlled conditions of temperature and light/dark (12/12 h) cycles. The animals were fed with standard pelleted diet and water ad libitum and were left one week for acclimatization to animal room condition.
A known weight of total methanol extract and each of the isolated compounds (P1-P5) and the reference drug (TKIs) was dissolved in 3% v/v Tween 80 to produce solutions of 10% concentration.
In absence of LD50 values for the total methanol extract and each of the isolated compounds, an experimental dose of 100/mg kg was selected in this investigation to be given orally to rats. The reference drug, TKIs, were given orally at a certain dose (30 mg/kg). This dose was calculated by converting the therapeutic dose that used in human to rat's dose according to the table of Paget & Barnes (1964). […]
Rats were divided into 8 equal groups. […] After transplantation of the K562 cells, animals were monitored for the presence of circulating blast cells by blood sampling from the retro-orbital plexus according to Ratajczak et al. (1992) method.
After 5 weeks, leukemic cell transplantation in animals was monitored for the development of overt leukemia by retro-orbital plexus bleeding thrice weekly. […]

Compound: Cc1ccc(NC(=O)c2ccc(CN3CCN(C)CC3)cc2)cc1Nc1nccc(-c2cccnc2)n1 [TKIs, 4-[(4-methyl-1-piperazinyl)methyl]-N-[4-methyl-3-[[4-(3-pyridinyl)-2-pyrimidinyl]aminophenyl]benzamide methanesulfonate]
- survival compared with control animals: not statistically different from the control animals
